Consider 1 molecule from US11001562B2, “Near-infrared fluorescent nerve contrast agents and methods of use thereof” (Beth Israel Deaconess Medical Center, priority 2013, dated 2021).

SMILES strings stand for the structures.

The nature of the series: Optical property measurements (absorbance and fluorescence spectra). The class given is physicochemical. The note with it: 100% FBS with 50 mM HEPES, pH 7.4, 37° C. How it is done: Absorbance and fluorescence spectra were obtained at a concentration of […] in 100% FBS supplemented with 50 mM HEPES, pH 7.4. B) Optical properties of Oxazine 4 were measured in PBS (pH 7.4), FBS (pH 7.4), MeOH, and DMSO.
Oxazine derivatives were obtained from Fisher Scientific Inc. (Pittsburgh, Pa.) or Sigma-Aldrich (Saint Louis, Mo.), and BMB was synthesized as described previously (25). Optical measurements were performed at 37° C. in phosphate-buffered saline (PBS), pH 7.4 or 100% fetal bovine serum (FBS) buffered with 50 mM HEPES, pH 7.4. Absorbance and fluorescence emission spectra were measured using fiber optic HR2000 absorbance (200-1100 nm) and USB2000FL fluorescence (350-1000 nm) spectrometers (Ocean Optics, Dunedin, Fla.). NIR excitation was provided by a 532 nm green laser pointer (Opcom Inc., Xiamen, China) set to 5 mW and coupled through a […] core diameter, NA 0.22 fiber (Fiberguide Industries, Stirling, N.J.). In silico calculation of the partition coefficient (log D at pH 7.4) was calculated using Marvin and J Chem calculator plugins (ChemAxon, Budapest, Hungary). Chemical similarities were calculated by Instant J Chem 6.04 using “Chemical Hashed Fingerprint” with the Normalized Euclidean dissimilarity screening configuration (ChemAxon).
All optical measurements were performed at 37° C. in phosphate-buffered saline (PBS), pH 7.4, 100% fetal bovine serum (FBS) buffered with 50 mM HEPES, pH 7.4, methanol (MeOH), or dimethyl sulfoxide (DMSO). Absorbance and fluorescence emission spectra of the series of NIR fluorophores were measured using fiber optic HR2000 absorbance (200-1100 nm) and USB2000FL fluorescence (350-1000 nm) spectrometers (Ocean Optics, Dunedin, Fla.). Excitation light was provided by a 532 nm green laser pointer (Opcom Inc., Xiamen, China) set to 5 mW and coupled through a 300 μm core diameter, NA 0.22 fiber (Fiberguide Industries, Stirling, N.J.). In silico calculation of the partition coefficient (log D at pH 7.4) was calculated using Marvin and J Chem calculator plugins (ChemAxon, Budapest, Hungary).

As for `CC/N=c1/cc2oc3cc(NCC)c(C)cc3nc-2cc1C` [Oxazine 4], the “Abs (peak absorbance)” value amounted to 616 nm, the “Em (peak emission)” value amounted to 635 nm and the “λ (extinction coefficient)” value was 143,000 M^−1cm^−1.
